Data: patent US10071957B2, “N-substituted benzamides and methods of use thereof” (GENENTECH, INC., priority 2012, dated 2018)

Experiments:
hNaV1.7 [1] = target: T1, hNaV1.7 (Homo sapiens (Human), UniProt Q15858); assay: Patch voltage clamp electrophysiology, inactivated state block of NaV1.7 in HEK-293 cells; format: cell-based; conditions: HEK cells with β1 subunit, read-out: hNaV 1.7 IC50
Procedure: (§1) Patch voltage clamp electrophysiology allows for the direct measurement and quantification of block of voltage-gated sodium channels (NaV's), and allows the determination of the time- and voltage-dependence of block which has been interpreted as differential binding to the resting, open, and inactivated states of the sodium channel (Hille, B., Journal of General Physiology (1977), 69: 497-515).
(§2) The following patch voltage clamp electrophysiology studies were performed on representative compounds of the invention using human embryonic kidney cells (HEK), permanently transfected with an expression vector containing the full-length cDNA coding for the desired human sodium channel α-subunit, grown in culture media containing 10% FBS, 1% PSG, and 0.5 mg/mL G418 at 37° C. with 5% CO2. […] NaV1.7 and NaV1.5 cDNAs (NM_002977 and AC137587; SCN5A, respectively) were stably expressed in HEK-293 cells. The β1 subunit was coexpressed in both the NaV1.7 and NaV1.5 cell lines.
(§3) Sodium currents were measured using the patch clamp technique in the whole-cell configuration using either a PatchXpress automated voltage clamp or manually using an Axopatch 200B (Axon Instruments) or Model 2400 (A-M systems) amplifier. The manual voltage clamp protocol was as follows:
(§4) The pipette was filled with a solution comprised of: 5 mM NaCl, 10 mM CsCl, 120 mM CsF, 0.1 mM CaCl2, 2 mM MgCl2, 10 mM HEPES, 10 mM EGTA; and adjusted to pH 7.2 with CsOH. The external solution had the following composition: 140 mM NaCl, 5 mM KCl, 2 mM CaCl2, 1 mM MgCl2, 10 mM HEPES; and adjusted to pH 7.4 with NaOH. In some studies, the external sodium was reduced by equimolar replacement with choline. Osmolarity in the CsF internal and NaCl external solutions was adjusted to 300 mOsm/kg and 310 mOsm/kg with glucose, respectively. All recordings were performed at ambient temperature in a bath chamber with a volume of 150 μL. Control sodium currents were measured in 0.5% DMSO. Controls and representative compounds of the invention were applied to the recording chamber through a 4-pinch or 8-pinch valve bath perfusion system manufactured by ALA Scientific Instruments.
(§5) Currents were recorded at 40 kHz sampling frequency, filtered at […], and stored using a Digidata-1322A analogue/digital interface with the pClamp software (Axon Instruments). Series resistance compensation was applied (60-80%). […] All statistics in this study are given as mean±SD.
The membrane potential was maintained at a voltage where inactivation of the channel is complete (which was −60 mV for both NaV1.7 and NaV1.5). […] The percent decrease in sodium current following wash-on of compound was taken as the percent block of sodium channels.

hNaV1.5 = hNaV1.5 (Homo sapiens (Human), UniProt Q14524); assay: Patch voltage clamp electrophysiology, inactivated state block of NaV1.5 in HEK-293 cells; format: cell-based; conditions: HEK cells with β1 subunit, read-out: hNaV 1.5 IC50
Procedure: as §1, §2, §3
as §4, with “Borosilicate glass micropipettes were fire-polished to a tip diameter yielding a resistance of 2-4 Mohms in the working solutions. The pipette” for “The pipette”
as §5
The membrane potential was maintained at a voltage where inactivation of the channel is complete (which was −60 mV for both NaV1.7 and NaV1.5). The voltage is then stepped back to a very negative (Vhold=[…]) voltage for 20 ms and then a test pulse is applied to quantify the compound block. The 20 ms brief repolarization was long enough for compound-free channels to completely recover from fast inactivation, but the compound-bound channels recovered more slowly such that negligible recovery could occur during this interval. The percent decrease in sodium current following wash-on of compound was taken as the percent block of sodium channels.

hNaV1.7 [2] = target: T1, hNaV1.7; assay: Competitive binding of tritiated compound to membranes from cells expressing hNav1.7 and the β1 subunit; conditions: 100 pM [3H]compound, 18 h, room temperature; read-out: NaV1.7 395 Membrane Binding IC50
Outline: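 Membranes from cells expressing hNav1.7 with β1 subunit incubated 18 h at room temperature with 100 pM tritiated reference compound and test compound in 100 mM NaCl, 20 mM Tris HCl, pH 7.4. Nonspecific binding defined with 1 μM unlabelled compound; bound radioactivity counted after GF/C filtration. IC50 from 4-parameter logistic fit.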

T1 sequence (Q15858 whole entry, looked up): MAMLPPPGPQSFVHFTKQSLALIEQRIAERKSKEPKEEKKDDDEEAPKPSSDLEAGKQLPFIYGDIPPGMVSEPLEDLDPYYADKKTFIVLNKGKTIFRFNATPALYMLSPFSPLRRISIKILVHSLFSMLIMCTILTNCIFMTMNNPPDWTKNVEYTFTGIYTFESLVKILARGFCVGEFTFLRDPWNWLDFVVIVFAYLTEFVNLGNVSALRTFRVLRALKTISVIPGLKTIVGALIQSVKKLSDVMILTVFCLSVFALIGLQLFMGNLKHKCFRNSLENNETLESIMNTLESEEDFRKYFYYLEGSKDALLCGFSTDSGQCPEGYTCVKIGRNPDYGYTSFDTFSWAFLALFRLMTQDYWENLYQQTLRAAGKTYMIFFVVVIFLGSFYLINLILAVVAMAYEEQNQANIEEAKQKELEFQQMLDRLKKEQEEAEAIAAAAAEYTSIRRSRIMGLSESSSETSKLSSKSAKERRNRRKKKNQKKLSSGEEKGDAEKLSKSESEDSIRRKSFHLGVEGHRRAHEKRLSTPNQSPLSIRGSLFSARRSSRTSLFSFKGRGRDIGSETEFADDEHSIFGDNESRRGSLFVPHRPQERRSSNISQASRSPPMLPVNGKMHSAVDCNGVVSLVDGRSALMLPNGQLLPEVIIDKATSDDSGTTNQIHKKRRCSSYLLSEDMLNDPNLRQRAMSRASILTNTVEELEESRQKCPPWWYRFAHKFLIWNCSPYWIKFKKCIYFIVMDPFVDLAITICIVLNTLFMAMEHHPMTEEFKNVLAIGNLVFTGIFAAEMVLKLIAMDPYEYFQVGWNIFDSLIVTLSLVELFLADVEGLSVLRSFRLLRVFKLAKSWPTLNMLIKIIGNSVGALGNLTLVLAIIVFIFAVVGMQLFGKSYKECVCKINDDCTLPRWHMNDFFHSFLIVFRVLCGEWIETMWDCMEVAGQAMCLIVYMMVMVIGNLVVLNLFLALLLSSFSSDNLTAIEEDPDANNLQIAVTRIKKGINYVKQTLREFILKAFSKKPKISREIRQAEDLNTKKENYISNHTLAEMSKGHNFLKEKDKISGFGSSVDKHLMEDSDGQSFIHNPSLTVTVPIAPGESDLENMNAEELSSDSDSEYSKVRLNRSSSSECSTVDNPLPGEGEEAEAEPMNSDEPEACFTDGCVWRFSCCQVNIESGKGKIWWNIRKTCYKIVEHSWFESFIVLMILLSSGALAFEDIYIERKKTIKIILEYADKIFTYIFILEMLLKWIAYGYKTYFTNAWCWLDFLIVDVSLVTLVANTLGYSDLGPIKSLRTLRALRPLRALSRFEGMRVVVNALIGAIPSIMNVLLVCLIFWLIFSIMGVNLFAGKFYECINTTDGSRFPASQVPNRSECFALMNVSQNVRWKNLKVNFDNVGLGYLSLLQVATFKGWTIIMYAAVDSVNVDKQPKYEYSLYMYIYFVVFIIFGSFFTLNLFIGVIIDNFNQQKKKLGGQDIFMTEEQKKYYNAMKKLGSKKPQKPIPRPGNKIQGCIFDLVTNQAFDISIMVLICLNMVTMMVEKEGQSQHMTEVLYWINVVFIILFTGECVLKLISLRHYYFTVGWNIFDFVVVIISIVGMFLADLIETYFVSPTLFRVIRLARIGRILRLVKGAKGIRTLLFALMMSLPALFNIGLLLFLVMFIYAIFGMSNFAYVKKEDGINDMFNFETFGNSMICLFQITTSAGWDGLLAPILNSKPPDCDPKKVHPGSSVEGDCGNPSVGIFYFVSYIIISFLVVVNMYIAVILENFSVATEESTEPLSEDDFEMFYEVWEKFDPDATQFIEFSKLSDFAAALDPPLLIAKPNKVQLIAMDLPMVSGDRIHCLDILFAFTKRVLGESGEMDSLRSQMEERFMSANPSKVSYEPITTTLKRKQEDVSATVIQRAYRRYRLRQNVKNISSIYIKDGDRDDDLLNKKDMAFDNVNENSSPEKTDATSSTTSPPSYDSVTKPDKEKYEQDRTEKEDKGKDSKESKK
T1 sequence (Q07699 whole entry partner, looked up): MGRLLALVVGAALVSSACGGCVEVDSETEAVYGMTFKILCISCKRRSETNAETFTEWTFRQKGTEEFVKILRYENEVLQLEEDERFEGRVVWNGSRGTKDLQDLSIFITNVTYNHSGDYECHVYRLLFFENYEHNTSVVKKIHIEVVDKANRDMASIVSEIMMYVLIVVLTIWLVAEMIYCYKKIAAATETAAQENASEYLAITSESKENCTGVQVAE
Chain of hNaV1.5 (Q14524 whole entry): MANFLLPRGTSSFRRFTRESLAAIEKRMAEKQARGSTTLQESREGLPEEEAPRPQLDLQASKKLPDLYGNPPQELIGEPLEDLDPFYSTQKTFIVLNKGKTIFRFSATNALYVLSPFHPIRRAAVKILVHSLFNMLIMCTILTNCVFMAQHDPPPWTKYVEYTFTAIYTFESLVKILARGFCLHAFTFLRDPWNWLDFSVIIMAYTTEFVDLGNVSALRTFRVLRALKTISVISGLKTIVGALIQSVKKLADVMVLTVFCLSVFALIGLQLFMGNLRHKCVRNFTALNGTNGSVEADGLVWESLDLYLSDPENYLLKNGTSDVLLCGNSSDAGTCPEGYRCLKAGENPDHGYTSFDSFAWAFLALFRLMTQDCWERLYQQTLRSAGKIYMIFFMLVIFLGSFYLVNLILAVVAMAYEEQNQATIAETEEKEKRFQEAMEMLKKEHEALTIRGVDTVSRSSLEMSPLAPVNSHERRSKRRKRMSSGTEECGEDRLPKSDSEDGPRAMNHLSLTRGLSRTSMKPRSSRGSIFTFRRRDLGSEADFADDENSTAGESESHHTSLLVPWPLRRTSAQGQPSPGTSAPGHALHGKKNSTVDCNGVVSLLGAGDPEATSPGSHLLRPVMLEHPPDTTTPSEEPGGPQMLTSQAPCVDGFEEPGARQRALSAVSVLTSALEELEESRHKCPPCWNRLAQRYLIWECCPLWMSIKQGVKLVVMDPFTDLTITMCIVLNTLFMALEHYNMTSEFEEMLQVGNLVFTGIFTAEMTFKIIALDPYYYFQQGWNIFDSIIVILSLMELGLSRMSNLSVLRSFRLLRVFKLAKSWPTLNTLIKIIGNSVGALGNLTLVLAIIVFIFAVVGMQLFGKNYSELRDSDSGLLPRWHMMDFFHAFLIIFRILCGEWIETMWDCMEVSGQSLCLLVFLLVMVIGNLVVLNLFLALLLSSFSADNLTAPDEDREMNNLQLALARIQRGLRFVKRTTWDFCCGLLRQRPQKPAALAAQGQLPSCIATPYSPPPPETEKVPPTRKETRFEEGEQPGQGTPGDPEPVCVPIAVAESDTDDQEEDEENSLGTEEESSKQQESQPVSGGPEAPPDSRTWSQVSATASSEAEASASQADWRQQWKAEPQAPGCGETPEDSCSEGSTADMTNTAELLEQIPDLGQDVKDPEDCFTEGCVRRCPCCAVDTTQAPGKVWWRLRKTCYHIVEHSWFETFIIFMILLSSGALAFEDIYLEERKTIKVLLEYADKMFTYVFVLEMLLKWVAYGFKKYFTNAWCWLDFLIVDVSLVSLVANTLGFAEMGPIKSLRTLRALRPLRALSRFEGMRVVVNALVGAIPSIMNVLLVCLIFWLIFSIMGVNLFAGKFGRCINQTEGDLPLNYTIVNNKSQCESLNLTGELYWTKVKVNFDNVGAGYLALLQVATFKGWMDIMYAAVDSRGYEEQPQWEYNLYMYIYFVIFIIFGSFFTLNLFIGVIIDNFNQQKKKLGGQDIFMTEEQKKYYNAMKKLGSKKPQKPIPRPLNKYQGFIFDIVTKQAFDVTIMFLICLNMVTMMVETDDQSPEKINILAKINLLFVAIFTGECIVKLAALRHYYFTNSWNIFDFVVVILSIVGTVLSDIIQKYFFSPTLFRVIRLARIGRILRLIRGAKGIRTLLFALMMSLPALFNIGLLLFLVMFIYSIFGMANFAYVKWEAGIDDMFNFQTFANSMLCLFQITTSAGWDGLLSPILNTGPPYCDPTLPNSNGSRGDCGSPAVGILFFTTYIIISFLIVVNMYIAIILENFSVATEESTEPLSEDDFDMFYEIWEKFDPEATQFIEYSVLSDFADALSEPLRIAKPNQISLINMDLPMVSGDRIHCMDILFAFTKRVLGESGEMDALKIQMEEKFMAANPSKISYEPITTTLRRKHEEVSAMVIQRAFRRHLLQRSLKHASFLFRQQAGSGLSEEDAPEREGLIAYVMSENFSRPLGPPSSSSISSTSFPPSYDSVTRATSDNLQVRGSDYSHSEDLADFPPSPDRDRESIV

Compound	IC50 (hNaV1.7 [1]) [nM]	IC50 (hNaV1.5) [nM]	IC50 (hNaV1.7 [2]) [nM]
CC(C)COc1ncc(Oc2cc(F)c(C(=O)NS(=O)(=O)N(C)C)cc2Cl)cc1Cl [Preparation 3, 5-chloro-4-((5-chloro-6-isobutoxypyridin-3-yl)oxy)-N-(N,N-dimethylsulfamoyl)-2-fluorobenzamide]	11	2180	24.8
CC(C)Oc1ncc(Oc2ccc(C(=O)NS(=O)(=O)N3CCC3)cc2C2CC2)cc1Cl [Preparation 84]	8.4	3500	25
CNS(=O)(=O)NC(=O)c1cc(Cl)c(Oc2cnc(OCC(C)C)c(Cl)c2)cc1F [Preparation 6, 5-chloro-4-((5-chloro-6-isobutoxypyridin-3-yl)oxy)-2-fluoro-N-(N-methylsulfamoyl) benzamide]	6	7180	8.5
C=Cc1cc(C(=O)NS(=O)(=O)N2CCC2)c(F)cc1Oc1cnc(OC(C)C)c(Cl)c1 [Preparation 91]	6.7	2600	5
COc1ncccc1-c1cc(C(=O)NS(=O)(=O)N2CCC2)ccc1Oc1cnc(OC(C)C)c(Cl)c1 [Preparation 86]	22	> 10000	11
